For one assay, the system named is circulating lymphocytes. Description: Measuring effects on lymphocytes in mice. In kind it is in vivo. The procedure:
Unless otherwise indicated, the term “circulating lymphocyte reduction factor” or “CLRF” means the decrease in the number of circulating lymphocytes in mice caused by oral administration of a single dose of a compound at 100 mg/kg, as determined by the method described in the Examples, below.
Compounds were administered by oral gavage or in drinking water. For oral dosing experiments, compounds were resuspended from crystals at 10 mg/ml in vehicle (e.g., water). Mice (F1 hybrids of 129/B6 strain) were gavaged with a single 100 mg/kg dose of compound (equivalent to 100 mpk of the free base for each compound) or a vehicle-only control, and returned to their cages. Mice were anesthetized using isofluorane eighteen hours after dosing and tissues were collected for analysis as described below. For drinking water studies, compounds were dissolved at 50 mg/L in acidified water (pH=2.8) containing 10 g/L glucose. The mice were allowed free access to compound-containing water (or glucose solution as a control) for 72 hours. At the end of 72 hours, tissues were collected for analysis.
CBC measurements were obtained as follows. Mice were anesthetized with isofluorane and blood was collected from the retroorbital plexus into EDTA blood collection tubes (Capiject-MQK, Terumo Medical Corp., Elkton, Md.). […]

The next assay deals with T1, S1P lyase (Mus musculus, UniProt Q8R0X7).
T1 construct: host or cells: mice (in vivo, endogenous enzyme)
T1 sequence (Q8R0X7 1-568): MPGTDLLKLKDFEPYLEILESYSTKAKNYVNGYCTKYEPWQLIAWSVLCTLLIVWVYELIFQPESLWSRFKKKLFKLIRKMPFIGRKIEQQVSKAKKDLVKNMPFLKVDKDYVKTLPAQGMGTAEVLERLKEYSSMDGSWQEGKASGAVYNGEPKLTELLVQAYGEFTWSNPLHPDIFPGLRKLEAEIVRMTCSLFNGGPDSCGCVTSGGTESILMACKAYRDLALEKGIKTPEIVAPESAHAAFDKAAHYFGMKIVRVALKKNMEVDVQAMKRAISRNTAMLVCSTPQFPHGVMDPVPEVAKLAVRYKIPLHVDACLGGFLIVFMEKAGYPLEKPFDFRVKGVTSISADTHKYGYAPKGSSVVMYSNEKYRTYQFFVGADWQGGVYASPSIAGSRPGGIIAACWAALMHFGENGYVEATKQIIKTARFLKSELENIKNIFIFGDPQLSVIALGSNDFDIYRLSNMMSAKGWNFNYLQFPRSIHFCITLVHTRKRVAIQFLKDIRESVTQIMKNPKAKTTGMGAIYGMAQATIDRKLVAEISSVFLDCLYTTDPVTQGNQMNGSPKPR
Conditions: when administered to mice; cited from earlier work.

The test system of assay [1] is lymphocytes / mature T cells. Conditions: administration to rats and mice; cited from earlier work.
A further assay relates to immunological effects. Conditions: studies in humans; cited from earlier work.

SMILES strings stand for the structures.

As to `CC(=O)c1nc(C)c([C@@H](O)[C@H](O)[C@H](O)CO)s1` [1-(4-methyl-5-((1S,2R,3R)-1,2,3,4-tetrahydroxybutyl)thiazol-2-yl)ethanone], the “effect on circulating lymphocytes” value in the assay on circulating lymphocytes was “little or no effect”.

`CC(=O)c1nc(C(O)C(O)C(O)CO)c[nH]1` (stereo not drawn) [THI, 2-acetyl-4-tetrahydroxybutylimidazole]: in the assay with circulating lymphocytes, the “effect on circulating lymphocytes” value is “capable of reducing circulating lymphocytes”. The S1P lyase activity entry at S1P lyase is reported as “inhibits S1P lyase activity”. In assay [1], the “accumulation of mature T cells in the thymus” value is “causes the accumulation of mature T cells in the thymus” and the lymphopenia entry is listed as “induces lymphopenia”. For the same molecule, the immunological effects entry in the assay with immunological effects is listed as “no immunological effects”.

(Values after US7598280B2, “Heterocyclic compounds, compositions comprising them and methods of their use” (Lexicon Pharmaceuticals, Inc., priority 2007, dated 2009).)
